Test [1] has as its target T1, ΔF508-CFTR (Homo sapiens, UniProt P13569, DEL508-508).
T1 construct: host or cells: CFBE41o-, doxycycline-inducible
Briefly: CFTR cell surface levels using HRP-tagged ΔF508-CFTR expressing CFBE cells, intrinsic corrector capacity. Format: cell-based. In short, it runs like this: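 Here the cells express ΔF508-CFTR with horseradish peroxidase inserted in extracellular loop 4, so only rescued channel at the surface gives luminescent signal. Compounds act on their own, 20 h at the reduced temperature of 33 °C; values are percent activity relative to DMSO and a 3 μM corrector.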

The target in test [2] is T1, ΔF508-CFTR. Briefly: CFTR cell surface levels using HRP-tagged ΔF508-CFTR expressing CFBE cells, in the presence of a co-corrector. The format is cell-based. In short, it runs like this: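 Cells were seeded with 0.5 μg/mL doxycycline and held 68 h at 37 °C. Test compounds plus 3 μM co-corrector (final 0.1% DMSO) were then added for 20 h at 33 °C. Washed cells received HRP substrate, and luminescence was normalized between DMSO and 3 μM co-corrector controls.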

The mark [3] stands for this setting: HRP-tagged ΔF508-CFTR CFBE41o- cells, compounds alone (intrinsic corrector capacity), 20 hours at 33° C., positive control 3 μM corrector.
[4] abbreviates: HRP-tagged ΔF508-CFTR CFBE41o- cells, compounds alone (intrinsic corrector capacity), 20 hours at 33° C., read-out: EC50.
Where [5] appears, read: HRP-tagged ΔF508-CFTR expressing CFBE cells, in the presence of 3 μM co-corrector.
Setting [6] is: HRP-tagged ΔF508-CFTR expressing CFBE cells, in the presence of 3 μM co-corrector, read-out: EC50.
Where [7] appears, read: HRP-tagged ΔF508-CFTR expressing CFBE cells, intrinsic corrector capacity (no co-corrector), 33° C., 20 hours.
The mark [8] stands for this setting: HRP-tagged ΔF508-CFTR expressing CFBE cells, intrinsic corrector capacity (no co-corrector), 33° C., 20 hours, read-out: EC50.

T1 sequence (P13569 with tags, fused parts or gaps DEL508-508): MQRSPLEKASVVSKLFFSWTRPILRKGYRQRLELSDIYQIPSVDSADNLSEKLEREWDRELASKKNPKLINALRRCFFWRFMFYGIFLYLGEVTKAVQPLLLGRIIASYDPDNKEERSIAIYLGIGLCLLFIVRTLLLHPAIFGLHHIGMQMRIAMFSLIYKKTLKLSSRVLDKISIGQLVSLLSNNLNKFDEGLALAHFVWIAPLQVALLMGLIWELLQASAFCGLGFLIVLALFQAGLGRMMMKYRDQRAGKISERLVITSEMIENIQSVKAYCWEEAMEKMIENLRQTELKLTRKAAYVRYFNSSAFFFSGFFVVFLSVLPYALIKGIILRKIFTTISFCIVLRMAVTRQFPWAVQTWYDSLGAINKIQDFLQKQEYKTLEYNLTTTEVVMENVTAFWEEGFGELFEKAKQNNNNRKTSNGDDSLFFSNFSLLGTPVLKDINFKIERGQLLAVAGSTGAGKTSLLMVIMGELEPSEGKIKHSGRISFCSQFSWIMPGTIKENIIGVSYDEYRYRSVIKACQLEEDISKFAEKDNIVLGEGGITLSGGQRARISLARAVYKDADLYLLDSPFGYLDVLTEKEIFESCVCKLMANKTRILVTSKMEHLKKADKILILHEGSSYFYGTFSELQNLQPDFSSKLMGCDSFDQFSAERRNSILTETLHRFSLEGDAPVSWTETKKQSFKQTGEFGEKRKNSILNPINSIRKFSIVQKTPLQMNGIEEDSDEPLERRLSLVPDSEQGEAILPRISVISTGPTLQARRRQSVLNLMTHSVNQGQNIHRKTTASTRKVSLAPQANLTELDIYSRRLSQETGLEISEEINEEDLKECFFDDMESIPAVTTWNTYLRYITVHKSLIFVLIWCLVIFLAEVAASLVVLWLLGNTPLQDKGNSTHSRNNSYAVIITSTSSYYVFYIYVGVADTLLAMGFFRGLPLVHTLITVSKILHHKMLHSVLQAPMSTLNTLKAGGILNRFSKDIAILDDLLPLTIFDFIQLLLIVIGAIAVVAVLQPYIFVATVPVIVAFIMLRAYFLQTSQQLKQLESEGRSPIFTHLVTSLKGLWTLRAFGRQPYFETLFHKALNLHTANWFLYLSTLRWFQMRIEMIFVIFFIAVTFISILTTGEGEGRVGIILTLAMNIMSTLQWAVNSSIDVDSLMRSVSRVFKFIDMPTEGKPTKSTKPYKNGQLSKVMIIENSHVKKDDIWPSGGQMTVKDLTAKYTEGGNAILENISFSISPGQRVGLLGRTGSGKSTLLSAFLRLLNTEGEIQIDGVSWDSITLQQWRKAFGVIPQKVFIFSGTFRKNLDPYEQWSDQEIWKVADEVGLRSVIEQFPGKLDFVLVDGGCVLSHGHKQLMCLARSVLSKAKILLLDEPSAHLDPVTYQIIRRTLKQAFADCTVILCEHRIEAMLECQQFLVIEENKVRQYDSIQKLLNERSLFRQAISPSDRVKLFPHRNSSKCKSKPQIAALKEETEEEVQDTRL

`CC(C)c1nn(-c2cccc(N3CCOCC3)c2)c2nc(C(=O)O)cc(-c3cnc(N(C)C)nc3)c12` [compound 88, 4-[2-(dimethylamino)pyrimidin-5-yl]-1-[3-(morpholin-4-yl)phenyl]-3-(propan-2-yl)-1H-pyrazolo[3,4-b]pyridine-6-carboxylic acid]: the “% Activation” value on ΔF508-CFTR [1] (setting [3]) was determined as 288.95%; on ΔF508-CFTR [2] (setting [5]), 453.15%. Besides, the EC50 (as a rule, the concentration at which the effect is half-maximal) at ΔF508-CFTR [1] (setting [4]) amounted to 693 nM; on ΔF508-CFTR [2] (setting [6]), 525 nM.
On to `Cc1cc(N2CCN(c3cc(C(=O)O)nc4c3c(C3CCC3)nn4C3CCCCC3)CC2)ccn1` [compound 864, 3-cyclobutyl-1-cyclohexyl-4-[4-(2-methylpyridin-4-yl)piperazin-1-yl]-1H-pyrazolo[3,4-b]pyridine-6-carboxylic acid], for which the figures for the “% Activation” value at ΔF508-CFTR [1] (setting [7]) and at ΔF508-CFTR [2] (setting [5]) were 337.7% and 458.6%, respectively. Moreover, the EC50 on ΔF508-CFTR [1] (setting [8]) was determined as 1010 nM; at ΔF508-CFTR [2] (setting [6]), 105 nM.
As to `CC(C)c1nn(-c2ccc(F)cc2)c2nc(C(=O)O)cc(N3CCCN(C4CCC4)CC3)c12` [compound 767, 4-(4-cyclobutyl-1,4-diazepan-1-yl)-1-(4-fluorophenyl)-3-(propan-2-yl)-1H-pyrazolo[3,4-b]pyridine-6-carboxylic acid], the entries for the “% Activation” value on ΔF508-CFTR [1] (setting [7]) and on ΔF508-CFTR [2] (setting [5]) were 59.96% and 210.1%, respectively. For the same molecule, the EC50 on ΔF508-CFTR [1] (setting [8]) and on ΔF508-CFTR [2] (setting [6]) was 1670 nM in each case.
In the case of `COC1CCN(c2cc(C(=O)O)nc3c2c(C(C)C)nn3-c2cccc(N(C)C)c2)CC1` [compound 330, 1-[3-(dimethylamino)phenyl]-4-(4-methoxypiperidin-1-yl)-3-(propan-2-yl)-1H-pyrazolo[3,4-b]pyridine-6-carboxylic acid], the “% Activation” value stood at 326.43% at ΔF508-CFTR [1] (setting [3]) and 509.93% at ΔF508-CFTR [2] (setting [5]). Further, the EC50 on ΔF508-CFTR [1] (setting [4]) stood at 405 nM; on ΔF508-CFTR [2] (setting [6]), 197 nM.
For the molecule `O=C(O)c1cc(N2CCC3C(CCN3C3COC3)C2)c2c(C3CCC3)nn(-c3ccc(F)cc3)c2n1` (centres unmarked) [compound 902, 3-cyclobutyl-1-(4-fluorophenyl)-4-[1-(oxetan-3-yl)octahydro-5H-pyrrolo[3,2-c]pyridin-5-yl]-1H-pyrazolo[3,4-b]pyridine-6-carboxylic acid], the “% Activation” value is listed as 193.9% at ΔF508-CFTR [1] (setting [7]) and 411.75% on ΔF508-CFTR [2] (setting [5]). In addition, the EC50 was 230 nM at ΔF508-CFTR [1] (setting [8]) and 114 nM on ΔF508-CFTR [2] (setting [6]).
With `CC(=O)N1CC2CN(c3cc(C(=O)O)nc4c3c(C(C)C)nn4-c3cccc(C)c3)CC2C1` (centres unmarked) [compound 233, 4-(5-acetylhexahydropyrrolo[3,4-c]pyrrol-2(11/)-yl)-1-(3-methylphenyl)-3-(propan-2-yl)-1H-pyrazolo[3,4-b]pyridine-6-carboxylic acid], the “% Activation” value amounted to 72.33% on ΔF508-CFTR [1] (setting [3]) and 249.55% on ΔF508-CFTR [2] (setting [5]). Also, the EC50 came to 3030 nM at ΔF508-CFTR [1] (setting [4]) and 3340 nM at ΔF508-CFTR [2] (setting [6]).
For the molecule `Cc1nn(-c2ccccc2)c2nc(C(=O)O)cc(OCC3(C)CC(F)(F)C3)c12` [compound 386, 4-[(3,3-difluoro-1-methylcyclobutyl)methoxy]-3-methyl-1-phenyl-1H-pyrazolo[3,4-b]pyridine-6-carboxylic acid], the results for the “% Activation” value on ΔF508-CFTR [1] (setting [3]) and at ΔF508-CFTR [2] (setting [5]) were 64.285% and 250.65%, respectively. Also, the concentration for a half-maximal effect (EC50) came out at 1310 nM on ΔF508-CFTR [1] (setting [4]) and 1440 nM at ΔF508-CFTR [2] (setting [6]).
With `CCCCN1CCCN(c2cc(C(=O)O)nc3c2c(C(C)C)nn3-c2ccc(F)cc2)CC1` [compound 768, 4-(4-butyl-1,4-diazepan-1-yl)-1-(4-fluorophenyl)-3-(propan-2-yl)-1H-pyrazolo[3,4-b]pyridine-6-carboxylic acid], the entries for the “% Activation” value at ΔF508-CFTR [1] (setting [7]) and at ΔF508-CFTR [2] (setting [5]) were 79.69% and 256.5%, respectively. Also, the results for the concentration giving a half-maximal response (EC50) at ΔF508-CFTR [1] (setting [8]) and on ΔF508-CFTR [2] (setting [6]) were 1580 nM and 1670 nM, respectively.
Turning to `Cc1nn(-c2ccccc2)c2nc(C(=O)O)cc(-c3ccc(N4CCOCC4)c(Br)c3)c12` [compound 66, 4-[3-bromo-4-(morpholin-4-yl)phenyl]-3-methyl-1-phenyl-1H-pyrazolo[3,4-b]pyridine-6-carboxylic acid], the entries for the “% Activation” value at ΔF508-CFTR [1] (setting [3]) and on ΔF508-CFTR [2] (setting [5]) were 13.06% and 131.3%, respectively. The EC50 at ΔF508-CFTR [1] (setting [4]) and at ΔF508-CFTR [2] (setting [6]) was over 10000 nM in each case.
As for `O=C(O)c1cc(N2CCN(CCCN3CCOCC3)CC2)c2c(C3CCC3)nn(-c3ccccc3)c2n1` [compound 558, 3-cyclobutyl-4-{4-[3-(morpholin-4-yl)propyl]piperazin-1-yl}-1-phenyl-1H-pyrazolo[3,4-b]pyridine-6-carboxylic acid], the entries for the “% Activation” value at ΔF508-CFTR [1] (setting [7]) and at ΔF508-CFTR [2] (setting [5]) were 121.3% and 322.5%, respectively. Also, the figures for the EC50 at ΔF508-CFTR [1] (setting [8]) and at ΔF508-CFTR [2] (setting [6]) were 1370 nM and 778 nM, respectively.
For `CC(C)(C)OC(=O)NC[C@H]1CCN(c2cc(C(=O)O)nc3c2c(C2CCC2)nn3-c2ccccc2)C1` [compound 672, 4-[(3R)-3-{[(tert-butoxycarbonyl)amino]methyl}pyrrolidin-1-yl]-3-cyclobutyl-1-phenyl-1H-pyrazolo[3,4-b]pyridine-6-carboxylic acid], the EC50 on ΔF508-CFTR [1] came out at 748 nM; on ΔF508-CFTR [2], 553 nM. Also, the “% Activation” value at ΔF508-CFTR [1] (setting [7]) was 141.6%; at ΔF508-CFTR [2] (setting [5]), 343.15%.
As to `COCC1CN(C2CCN(c3cc(C(=O)O)nc4c3c(C3CCC3)nn4-c3ccc(F)cc3)CC2)CCO1` (centres unmarked) [compound 853, 3-cyclobutyl-1-(4-fluorophenyl)-4-{4-[2-(methoxymethyl)morpholin-4-yl]piperidin-1-yl}-1H-pyrazolo[3,4-b]pyridine-6-carboxylic acid], the “% Activation” value on ΔF508-CFTR [1] (setting [7]) is 290.9%; on ΔF508-CFTR [2] (setting [5]) it was 509.5%. The EC50 on ΔF508-CFTR [1] (setting [8]) is 261 nM; on ΔF508-CFTR [2] (setting [6]), 177 nM.
On to `Cc1nn(-c2ccccc2)c2nc(C(=O)O)cc(C3=CCOCC3)c12` [compound 128, 4-(3,6-dihydro-2H-pyran-4-yl)-3-methyl-1-phenyl-1H-pyrazolo[3,4-b]pyridine-6-carboxylic acid], for which the “% Activation” value was found to be 33.92% on ΔF508-CFTR [1] (setting [3]) and 175.85% on ΔF508-CFTR [2] (setting [5]). Also, the concentration giving a half-maximal response (EC50) on ΔF508-CFTR [1] (setting [4]) and on ΔF508-CFTR [2] (setting [6]) was 3340 nM in each case.
With `CC(C)c1nn(C2CCCCC2)c2nc(C(=O)O)cc(-c3ccc(N4CCC(C#N)CC4)cc3)c12` [compound 185, 4-[4-(4-cyanopiperidin-1-yl)phenyl]-1-cyclohexyl-3-(propan-2-yl)-1H-pyrazolo[3,4-b]pyridine-6-carboxylic acid], the figures for the “% Activation” value at ΔF508-CFTR [1] (setting [3]) and on ΔF508-CFTR [2] (setting [5]) were 237.8% and 478.6%, respectively. Moreover, the EC50 amounted to 1110 nM at ΔF508-CFTR [1] (setting [4]) and 520 nM on ΔF508-CFTR [2] (setting [6]).
Consider `CC(C)c1nn(-c2ccccc2)c2nc(C(=O)O)cc(-c3cnc(N4CCOCC4)nc3)c12` [compound 79, 4-[2-(morpholin-4-yl)pyrimidin-5-yl]-1-phenyl-3-(propan-2-yl)-1H-pyrazolo[3,4-b]pyridine-6-carboxylic acid], for which the entries for the “% Activation” value on ΔF508-CFTR [1] (setting [3]) and on ΔF508-CFTR [2] (setting [5]) were 195.9% and 256.45%, respectively. For the same molecule, the EC50 on ΔF508-CFTR [1] (setting [4]) turned out to be 697 nM; at ΔF508-CFTR [2] (setting [6]), 5280 nM.
With `O=C(O)c1cc(NCC2CCOCC2)c2c(C3CCC3)nn(-c3ccccc3)c2n1` [compound 590, 3-cyclobutyl-4-{[(oxan-4-yl)methyl]amino}-1-phenyl-1H-pyrazolo[3,4-b]pyridine-6-carboxylic acid], the values for the concentration for a half-maximal effect (EC50) on ΔF508-CFTR [1] and at ΔF508-CFTR [2] were 2610 nM and 2030 nM, respectively. Also, the “% Activation” value was determined as 141.3% on ΔF508-CFTR [1] (setting [7]) and 310.45% at ΔF508-CFTR [2] (setting [5]).
On to `Cc1nn(-c2ccccc2)c2nc(C(=O)O)cc(OCCN3CCCC3)c12` [compound 342, 3-methyl-1-phenyl-4-[2-(pyrrolidin-1-yl)ethoxy]-1H-pyrazolo[3,4-b]pyridine-6-carboxylic acid], for which the “% Activation” value was 19.4% on ΔF508-CFTR [1] (setting [3]) and 138.5% on ΔF508-CFTR [2] (setting [5]). Moreover, the EC50 at ΔF508-CFTR [1] (setting [4]) was 7500 nM; on ΔF508-CFTR [2] (setting [6]), 3370 nM.
With `CC(C)c1nn(C2CCN(CC#N)CC2)c2nc(C(=O)O)cc(-c3ccc(N4CCOCC4)cc3)c12` [compound 95, 1-[1-(cyanomethyl)piperidin-4-yl]-4-[4-(morpholin-4-yl)phenyl]-3-(propan-2-yl)-1H-pyrazolo[3,4-b]pyridine-6-carboxylic acid], the “% Activation” value on ΔF508-CFTR [1] (setting [3]) amounted to 16.66%; on ΔF508-CFTR [2] (setting [5]) it was 145.4%. Also, the EC50 at ΔF508-CFTR [1] (setting [4]) is over 10000 nM; on ΔF508-CFTR [2] (setting [6]), 3340 nM.
Consider `N#CC1CCCN(C2CCN(c3cc(C(=O)O)nc4c3c(C3CCC3)nn4-c3ccc(F)cc3)CC2)C1` (centres unmarked) [compound 871, 4-(3-cyano[1,4′-bipiperidin]-1′-yl)-3-cyclobutyl-1-(4-fluorophenyl)-1H-pyrazolo[3,4-b]pyridine-6-carboxylic acid], for which the “% Activation” value at ΔF508-CFTR [1] (setting [7]) came out at 355.1%; on ΔF508-CFTR [2] (setting [5]), 681.7%. The values for the EC50 at ΔF508-CFTR [1] (setting [8]) and at ΔF508-CFTR [2] (setting [6]) were 275 nM and 156 nM, respectively.
The like results for `CN(C)CCC1CCN(c2cc(C(=O)O)nc3c2c(C2CCC2)nn3-c2ccccc2)CC1` [compound 447, 3-cyclobutyl-4-{4-[2-(dimethylamino)ethyl]piperidin-1-yl}-1-phenyl-1H-pyrazolo[3,4-b]pyridine-6-carboxylic acid] were, in that order, 243.3%, 415.6%, 1120 nM and 724 nM.

For the origin of these results see patent US9796711B2, “Substituted pyrazolo[3,4-b]pyridin-6-carboxylic acids and method of use” (AbbVie S.àr.l., priority 2015, dated 2017).
